Results taken from patent publication US8288428B2, “Compounds as cannabinoid receptor ligands” (Abbott Laboratories, priority 2009, dated 2012).
Like-named read-outs stand apart in the source and are kept apart here.

How the values were obtained:
microglial activation = conditions: in vitro; cited from earlier work
rodent models of pain = conditions: rodent models of neuropathic, incisional, chronic and acute inflammatory pain; cited from earlier work
[1] = system: rat formalin model of persistent pain; conditions: cited from earlier work
rat CB2 receptors = molecular target: T1, rat CB2 receptors (Rattus norvegicus, UniProt Q9QZN9); experiment: rat CB2 radioligand binding assay
T1 construct: expressed in transfected cells; membrane preparation
T1 sequence (Q9QZN9 1-360): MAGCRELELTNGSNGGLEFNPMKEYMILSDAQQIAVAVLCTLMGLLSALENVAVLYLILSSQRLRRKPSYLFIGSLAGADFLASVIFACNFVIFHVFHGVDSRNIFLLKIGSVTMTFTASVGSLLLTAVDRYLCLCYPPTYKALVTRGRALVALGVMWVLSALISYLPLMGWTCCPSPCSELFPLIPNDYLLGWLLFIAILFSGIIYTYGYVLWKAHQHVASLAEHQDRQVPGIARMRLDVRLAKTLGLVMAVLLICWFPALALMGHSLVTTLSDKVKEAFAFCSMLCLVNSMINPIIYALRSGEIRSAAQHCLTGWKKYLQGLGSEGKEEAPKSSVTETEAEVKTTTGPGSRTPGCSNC
Method: (§1) (i) In Vitro Methods—CB2 and CB1 Radioligand Binding Assays:
(§2) The CB1 and CB2 radioligand binding assays described herein are utilized to ascertain the selectivity of compounds of the present application for binding to CB2 relative to CB1 receptors.
(§3) HEK293 cells stably expressing rat CB2 receptors were grown until a confluent monolayer was formed. Briefly, the cells were harvested and homogenized in TE buffer (50 mM Tris-HCl, 1 mM MgCl2, and 1 mM EDTA) using a polytron for 2×10 second bursts in the presence of protease inhibitors, followed by centrifugation at 45,000×g for 20 minutes. The final membrane pellet was re-homogenized in storage buffer (50 mM Tris-HCl, 1 mM MgCl2, and 1 mM EDTA and 10% sucrose) and frozen at −78° C. until used. Saturation binding reactions were initiated by the addition of membrane preparation (protein concentration of 20 μg/well for rat CB2) into wells of a deep well plate containing [^3H]CP-55,940 (120 Ci/mmol, a nonselective CB agonist commercially available from Tocris) in assay buffer (50 mM Tris, 2.5 mM EDTA, 5 mM MgCl2, and 0.5 mg/mL fatty acid free BSA, pH 7.4). After 45 min incubation at 30° C., binding reaction was terminated by the addition of 300 μL/well of cold assay buffer followed by rapid vacuum filtration through a UniFilter-96 GF/C filter plates (pre-soaked in 1 mg/mL BSA for 2 hours). The bound activity was counted in a TopCount using Microscint-20. Saturation experiments were conducted with twelve concentrations of [^3H]CP-55,940 ranging from 0.01 to 8 nM. Competition experiments were conducted with 0.5 nM [^3H]CP-55,940 and five concentrations of displacing ligands selected from the range of 0.01 nM to 10 μM. The addition of 10 μM unlabeled CP-55,940 (Tocris, Ellisville, Mo.) was used to assess nonspecific binding.

human CB2 receptors = molecular target: T2, human CB2 receptors (Homo sapiens, UniProt P34972); experiment: human CB2 radioligand binding assay
T2 construct: expressed in transfected cells; membrane preparation
T2 sequence (P34972 whole entry): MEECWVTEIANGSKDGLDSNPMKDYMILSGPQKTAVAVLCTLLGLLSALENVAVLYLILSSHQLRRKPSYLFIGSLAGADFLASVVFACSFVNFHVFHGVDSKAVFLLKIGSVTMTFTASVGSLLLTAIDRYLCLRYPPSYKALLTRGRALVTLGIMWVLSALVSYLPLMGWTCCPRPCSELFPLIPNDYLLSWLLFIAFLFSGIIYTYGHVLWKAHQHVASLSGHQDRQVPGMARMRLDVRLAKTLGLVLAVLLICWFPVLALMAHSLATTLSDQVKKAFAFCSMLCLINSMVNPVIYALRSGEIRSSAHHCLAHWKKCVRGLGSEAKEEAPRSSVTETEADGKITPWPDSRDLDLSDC
Method: as §1, §2
as §3, with “expressing human” for “expressing rat”, “of 5” for “of 20”, “for human” for “for rat”, “After 90” for “After 45”, “concentrations (0.01” for “concentrations of displacing ligands selected from the range of 0.01”, “10 μM) of displacing ligands.” for “10 μM.”

[2] = system: ovariectomy-induced bone loss; conditions: mice, model for post-menopausal osteoporosis; cited from earlier work
[3] = system: apolipoprotein E knockout mice; conditions: cited from earlier work
osteoclast activity = conditions: cited from earlier work
animal models of pain = conditions: animal models of acute thermal, persistent, inflammatory and neuropathic pain; cited from earlier work

Question: With CCCC(C)(C)c1ccc2c(c1)OC(C)(C)[C@@H]1CC=C(C)C[C@@H]21 [JWH-133] as the molecule, how does the “effect on β-amyloid-induced microglial activation and neurotoxicity” value (microglial activation) read?
Answer: abrogated

Question: Which “efficacy in pain models” value (rodent models of pain) does the source give for COc1ccc2c(c1)c(CCN1CCOCC1)c(C)n2C(=O)c1cccc(Cl)c1Cl [GW405833] here?
Answer: efficacious

Question: For CCCCCCC(C)(C)c1cc(OC)c([C@@H]2C=C(CO)[C@@H]3C[C@H]2C3(C)C)c(OC)c1 [HU-308], which antinociceptive response [1] is on record?
Answer: elicits an antinociceptive response

Question: Which Ki (rat CB2 receptors) does the source give for CCCCn1nc(C(C)(C)C)s/c1=N\C(=O)c1cc(C(F)(F)F)ccc1CN1CC(O)C1 [Example 16, N-[(2Z)-3-butyl-5-tert-butyl-1,3,4-thiadiazol-2(3H)-ylidene]-2-[(3-hydroxyazetidin-1-yl)methyl]-5-(trifluoromethyl)benzamide] here?
Answer: 0.8 nM

Question: And the Ki (human CB2 receptors)?
Answer: 1.63 nM

Question: For SR144528, which “effect on ovariectomy-induced bone loss” value [2] is on record?
Answer: reverse

Question: What about the “inhibition of THC effects on atherosclerotic lesions” value [3] of the same molecule?
Answer: inhibited

Question: And the “blockade of JWH-133 effects on β-amyloid-induced microglial activation and neurotoxicity” value (microglial activation)?
Answer: blocked

Question: And the “effect on osteoclast activity” value (osteoclast activity)?
Answer: inhibit

Question: Which analgesic efficacy (animal models of pain) does the source give for CN1CCCCC1Cn1cc(C(=O)c2cc([N+](=O)[O-])ccc2I)c2ccccc21 (stereo not shown) [AM-1241] here?
Answer: robust analgesic efficacy

Question: With CCCCn1nc(C(C)(C)C)s/c1=N\C(=O)c1cc(C(F)(F)F)ccc1CN1CC(C(C)(C)O)C1 [Example 22, N-[(2Z)-3-butyl-5-tert-butyl-1,3,4-thiadiazol-2(3H)-ylidene]-2-{[3-(1-hydroxy-1-methylethyl)azetidin-1-yl]methyl}-5-(trifluoromethyl)benzamide] as the molecule, how does the Ki (rat CB2 receptors) read?
Answer: 2.14 nM

Question: What about the Ki (human CB2 receptors) of the same molecule?
Answer: 5.33 nM

Question: Which Ki (rat CB2 receptors) does the source give for CCCCn1nc(C(C)(C)C)s/c1=N\C(=O)c1cc(C(F)(F)F)ccc1CO [Example 20, N-[(2Z)-3-butyl-5-tert-butyl-1,3,4-thiadiazol-2(3H)-ylidene]-2-(hydroxymethyl)-5-(trifluoromethyl)benzamide] here?
Answer: 0.57 nM

Question: What about the Ki (human CB2 receptors) of the same molecule?
Answer: 1.89 nM

Question: Which Ki (rat CB2 receptors) does the source give for COCCCn1/c(=N/C(=O)c2cc(C(F)(F)F)ccc2/C=C/C(C)(C)O)cc(C(C)(C)C)n1C [Example 14, N-[(3E)-5-tert-butyl-2-(3-methoxypropyl)-1-methyl-1,2-dihydro-3H-pyrazol-3-ylidene]-2-[(1E)-3-hydroxy-3-methylbut-1-enyl]-5-(trifluoromethyl)benzamide] here?
Answer: 30.6 nM

Question: What about the Ki (human CB2 receptors; competition with 0.5 nM [3H]CP-55,940, HEK293 membranes expressing human CB2, read-out: human CB2 binding (Ki)) of the same molecule?
Answer: 111 nM

Question: Which Ki (rat CB2 receptors) does the source give for CCCCn1/c(=N/C(=O)c2cc(C(F)(F)F)ccc2CCC(=O)OCC)cc(C(C)(C)C)n1C [Example 11, ethyl 3-[2-({[(3E)-2-butyl-5-tert-butyl-1-methyl-1,2-dihydro-3H-pyrazol-3-ylidene]amino}carbonyl)-4-(trifluoromethyl)phenyl]propanoate] here?
Answer: 32.5 nM

Question: What about the Ki (human CB2 receptors) of the same molecule?
Answer: 53.3 nM

Question: For (−)-Δ^9-Tetrahydrocannabinol [THC], which “progression of atherosclerotic lesions” value ([3]; low doses) is on record?
Answer: slowed the progression
